US8058309B2, “Protein kinase modulators and therapeutic uses thereof” (Novotyr Therapeutics Ltd., priority 2006, dated 2011)
pIC50: −log10 of the molar value. “Also recorded” adds a separate entry of the source. Read-outs that look alike come from different tables or passages of the source.

Assays:
[1] = test system: metastatic melanoma YUMAC cells; test: Apoptosis (cleaved PARP) in YUMAC cells; type: cell-based, human; settings: 24 hours of exposure, 3 μM
Protocol: (§1) In addition, lysates were prepared from cells exposed to inhibitors at various concentrations for 24 hours in the presence or the absence of FCS without stimulation. Lysate preparation and western blot were the same as described above. Apoptosis was detected by immunoblotting with rabbit anti-PARP antibodies.

[2] = test system: MCF-7; test: Proliferation assay MCF-7; type: cell-based; settings: Homo sapiens, MCF7, Breast, 72 hours
Protocol: (§2) Various cancer cell lines (listed in table 1) were plated at a density of 1000-5000 cells/well in 96-well plates in 90111 growth medium containing 10% FCS, 100 units/ml penicillin and 100 μg/ml streptomycin. Inhibitors were added a day later in 10 μl of 1% DMSO in DDW to obtain final concentrations of 0, 0.1, 0.3, 1, 3, and 10 μM. The final concentration of DMSO (0.1% DMSO) was kept constant in all samples. Medium with inhibitors was refreshed a day and two days later. Following exposure of the cells to the inhibitors for 72 hours at 37° C., the cells were fixed in 0.5% gluteraldehyde in medium for 10 min, washed three times with DDW, once with 0.1M sodium borate buffer pH 8.5 and stained with 1% methylene blue dissolved in 0.1M borate buffer solution for 60 min. Excess dye was washed out and cell-bound dye was eluted with 200 μl/well of 0.1 M HCl. The optical density value was read at 620 nm in ELISA plate reader. The data was analyzed in Microsoft Excel, using the vehicle control as 100% proliferation. The assays were performed in triplicates. The values in table 1 represent IC50 values derived from the dose-dependent growth curves obtained.
(§3) Compounds 6, 7, 8, and 9 were tested for their inhibitory potential in cell proliferation assay. In this assay cells were exposed to increasing concentrations of the molecules (at 0.1% DMSO in all wells) a day after seeding. Medium and inhibitors were refreshed every day, and following three days of treatment, cells were fixed and stained with methylene-Blue. IC50 values were determined from the curves of the optical density against compound concentration. The assay was performed in triplicates.

[3] = test system: U138MG; test: Proliferation assay U138MG; type: cell-based; settings: Homo sapiens, U138-MG, Glioma, 72 hours
Protocol: as §2, §3

[4] = test system: MO59J; test: Proliferation assay MO59J; type: cell-based; settings: Glioma, 72 hours
Protocol: as §2, §3

[5] = test system: U138MG; test: Clonogenic assay U138MG; type: cell-based; settings: Homo sapiens, U138-MG, Glioma
Protocol: Various cancer cells (listed in table 1) were seeded at a very low concentration (19 cells/well in 96-well plates or 63 cells/well in 24-well plates) in growth medium. A day later medium was replaced with growth medium containing various concentrations of inhibitors in a final concentration of 0.1% DMSO. The inhibitor-containing medium was refreshed three times a week. Following approximately two weeks cells were fixed by adding Gluteraldehide (0.5% final concentration) for 10 min, washed three time with DDW, once with borate buffer 0.1M and stained for 1 hour with 1% Methylene Blue in borate buffer 0.1M. Access stain was washed with water, and following drying colonies were counted. Alternatively, stain was extracted by 0.1N HCl for 1 hour and absorbance at 620 nm was measured by ELISA Reader. The assays were performed in triplicates. The values in table 1 represent IC50 values derived from the dose-dependent growth curves obtained.

[6] = test system: B16; test: Proliferation assay B16; type: cell-based; settings: Mus musculus, Melanoma, 72 hours
Protocol: as §2, §3

[7] = test system: IRS1; test: IRS1 Ser-phosphorylation in YUMAC cells; type: cell-based, human; settings: metastatic melanoma YUMAC cells
Protocol: as §1

[8] = test system: MDA MB 435; test: Proliferation assay MDA MB 435; type: cell-based; settings: Homo sapiens, Breast, 72 hours
Protocol: as §2, §3

[9] = test system: NCl-H526; test: Proliferation assay NCl-H526; type: cell-based; settings: Lung, 72 hours
Protocol: as §2, §3

[10] = test system: MDA MB 468; test: Proliferation assay MDA MB 468; type: cell-based; settings: Homo sapiens, Breast, 72 hours
Protocol: as §2, §3

[11] = test system: SKOV-3; test: Proliferation assay SKOV-3; type: cell-based; settings: Homo sapiens, SK-OV-3, Ovarian, 72 hours
Protocol: as §2, §3

[12] = test system: LIM 1899; test: Proliferation assay LIM 1899; type: cell-based; settings: Colon, 72 hours
Protocol: as §2, §3

[13] = test system: IRS1; test: IRS1 Ser-phosphorylation and IRS1 levels in MCF7 cells; type: cell-based; settings: breast cancer MCF7 cells
Protocol: Tyrosine autophosphorylation of the β-subunit of IGF1R as well as downstream signaling induced by IGF1R were assayed in breast cancer MCF7 cells. Tyrosine autophosphorylation of the EGFR and the EGFR signaling was assayed in prostate cancer PC3 cells. Tyrosine autophosphorylation of the PDGFR and its signaling was assayed in fibroblasts overexpres sing PDGFR. Tyro sine autophosphorylation of the IR and its signaling was assayed in fibroblasts overexpressing IR. Cells were seeded in 6-well plates (MCF7-250,000 cells/well, PC3-150,000 cells/well, fibroblasts-140,000 cells/well) and 24 hours later medium was replaced by serum-free medium (DMEM supplemented with 100 units/ml penicillin and 100 μg/ml streptomycin). Following 20 hours of serum-starvation medium was replaced with medium containing various concentrations of the inhibitors in 0.1% DMSO for additional 4 hours. Cells were then stimulated for 5 min with 50 ng/ml IGF-1 (MCF7 cells), 20 ng/ml EGF (PC3 cells), 50 ng/ml PDGF (fibroblasts overexpressing PDGFR) or 100 nM insulin (fibroblasts overexpressing IR), washed twice with PBS and lysed by boiling sample buffer (10% glycerol, 50 mM Tris-HCl, pH 6.8, 3% SDS, and 5%, β-mercaptoethanol). Equal amounts of protein per lane were separated by 8% SDS-PAGE and transferred to a nitrocellulose membrane (Sartorius AG). Phosphorylated proteins were immunoblotted with anti-phospho-IGF1R (phosphor-IGF1R), anti-phosphotyrosine-IRS1 (phospho-IRS1), anti-phospho(T308)Akt (phospho-PKB), anti-phospho-Erk (phospho-ERK), anti-phosphotyrosine 4G10&PY20 (pY-EGFR or pY-PDGFR), anti-phospho-Ser^636/639-IRS1 (pS^636/639-IRS1) and anti-phospho-STAT3 (phospho-STAT3) antibodies. Detection was performed with horseradish peroxidase-conjugated secondary antibody using the ECL system. Blots were then stripped of antibodies, blocked with TBST with 5% low fat milk and re-probed with antibodies detecting both the phosphorylated and the non-phosphorylated corresponding proteins e.g. IGF1Rβ, IRS1, PKB, ERK, IRβ, PDGFR and Stat3.
as §1

[14] = test system: YURIF; test: Proliferation assay YURIF; type: cell-based; settings: Homo sapiens
Protocol: as §2, §3

[15] = test system: PC3-MM2; test: Proliferation assay PC3-MM2; type: cell-based; settings: Homo sapiens, PC3MM2, Prostate, 72 hours
Protocol: as §2, §3

[16] = test system: LIM 1215; test: Proliferation assay LIM 1215; type: cell-based; settings: LIM1215, Colon, 72 hours
Protocol: as §2, §3

[17] = Melanoma, YURIF, 72 hours, read-out: Proliferation assay IC50
[18] = Table 4, 72 hours incubation, read-out: Inhibition of human metastatic melanoma cells, YURIF IC50

Row | pIC50 [2] | pIC50 [5] | pIC50 [6] | pIC50 [9] | pIC50 [11] | pIC50 [15] | SMILES | Cleavage of PARP (apoptosis) [1] | pIC50 [3] | pIC50 [4] | IRS1 Ser-phosphorylation [7] | pIC50 [8] | pIC50 [10] | pIC50 [12] | IRS1 Ser-phosphorylation [13] | pIC50 [14, 17] | pIC50 [14, 18] | pIC50 [16] | Cellular levels of IRS1 [13]
1 | 5.60 | 6.30 | 5.85 | < 5.00 | 5.37 | 5.16 | Oc1cc(CNC(=S)/C=C/c2cc(O)c(O)c(Br)c2)cc(O)c1O [Compound 9] | detected | 6.70 | 6.05 | trigger IRS1-ser phosphorylation; also recorded: detected | 5.82 | 5.14 | 5.70 | trigger IRS1-ser phosphorylation | 6.15 | 6.19 | 5.48 | 
2 | 5.32 | 5.74 | 5.72 | < 5.00 | 5.28 | 5.59 | N#C/C(=C\c1cc(O)c(O)c(Br)c1)C(=S)NCc1cc(O)c(O)c(O)c1 [Compound 7] | detected | 6.10 | 5.68 | detected | 5.57 | < 5.00 | 5.12 | increase in IRS1 Ser-phosphorylation | 5.85 | 5.85 | 5.19 | induce a decrease in the cellular levels
3 | 5.68 | 5.66 | 5.10 | < 5.00 | < 5.00 | < 5.00 | N#C/C(=C\c1cc(O)c(O)c(Br)c1)C(=S)NCc1cc(O)c(O)c(Br)c1 [Compound 6] |  | 5.70 | 5.08 |  | < 5.00 | < 5.00 | < 5.00 |  | < 5.00 | < 5.00 | < 5.00 | has no effect
4 | 5.55 | 5.80 | 5.77 | < 5.00 | 5.46 | 5.68 | N#C/C(=C\c1cc(O)c(O)c(I)c1)C(=S)NCc1cc(O)c(O)c(O)c1 [Compound 8] | detected | 6.10 | 5.80 | trigger IRS1-ser phosphorylation; also recorded: detected | 5.68 | 5.24 | 5.15 | trigger IRS1-ser phosphorylation | 5.80 | 5.80 | 5.19 | 
